Data taken from article PMC9886975, “Ligand recognition mechanism of the human relaxin family peptide receptor 4 (RXFP4)” (Nature Communications, 2023).
“Also recorded” adds a separate entry of the source. Where two headings read alike, the source gives them in different places.

Key:
human RXFP3 = assay: inhibition of forskolin-induced cAMP accumulation, WT RXFP3 (hRXFP3-CHO); type: cell-based; settings: binding and cAMP assays, Fig. 3e, Supplementary Fig. 2e–g
Description: (§1) CHO-K1 (ATCC, Cat#CCL-61) cells stably expressing human RXFP4 (hRXFP4-CHO) or RXFP3 (hRXFP3-CHO) were maintained in DMEM/F12 (Gibco) supplemented with 10% (v/v) fetal bovine serum (FBS) and 2 mM L-glutamine. Human embryonic kidney 293 T cells containing SV40 large T-antigen (HEK293T, ATCC, Cat#64127316) were maintained in DMEM (Gibco) supplemented with 10% (v/v) FBS, 1 mM sodium pyruvate (Gibco), 100 units/mL penicillin and 100 μg/mL streptomycin at 37 °C in 5% CO2. For cAMP assays in mutants, HEK293T cells were seeded onto 6-well cell culture plates at a density of 7 × 10^5 cells per well. After overnight incubation, cells were transfected with WT or mutant receptors using Lipofectamine 3000 transfection reagent (Invitrogen). Following 24 h culturing, the transfected cells were ready for detection.
(§2) Ligands were verified for their bioactivity in the beginning in hRXFP4-CHO, which were ready for use after 24 h culturing. […] The time-resolved fluorescence resonance energy transfer (TR-FRET) signals were detected by an EnVision multilabel plate reader (PerkinElmer) with the emission window ratio of 665 nm over 620 nm under 320 nm excitation. […]
All functional study data were analyzed using GraphPad Prism 8.3 (GraphPad Software) and presented as means ± S.E.M. from at least three independent experiments. Dose-response curves were evaluated with a three-parameter logistic equation. […]

RXFP4 E100A = molecular target: T1, RXFP4 E100A (Homo sapiens, UniProt Q8TDU9, E100A); assay: cAMP accumulation, RXFP4 E100A; type: cell-based; settings: HEK293T
T1 construct: RXFP4(1-374)-; expressed in transfected cells; host or cells: HEK293T, transient (pCMV6)
Text: (§3) The full-length human RXFP4 (NCBI Reference Sequence: NM_181885.3) was cloned into a modified pFastBac vector (Invitrogen) with HA signal peptide to enhance receptor expression, followed by a 10× histidine tag and BRIL insertion at the N terminus. LgBiT subunit (Promega) was fused at the C terminus of RXFP4 connected by a 15-amino acid polypeptide linker. […] The engineered human Gαi2, Gβ1, bovine Gγ2, and scFv16 were cloned into the pFastBac vector (Invitrogen), respectively. For cAMP accumulation assay, human RXFP4 and RXFP3 (NCBI Reference Sequence: NM_016568.3) were cloned into pCMV6 constructs (OriGene Technologies). The mutant receptors were modified by site-directed mutagenesis in the setting of the WT constructs, with the primers designed by QuikChange Primer Design [QuickChange Primer Design (http://agilent.com.cn)] and carried out using Phanta Max Master (Vazyme). N-terminal Flag tag was added to both WT and mutant receptors for surface expression measurement. […]
(§4) CHO-K1 (ATCC, Cat#CCL-61) cells stably expressing human RXFP4 (hRXFP4-CHO) or RXFP3 (hRXFP3-CHO) were maintained in DMEM/F12 (Gibco) supplemented with 10% (v/v) fetal bovine serum (FBS) and 2 mM L-glutamine. […] Following 24 h culturing, the transfected cells were ready for detection.
as §2
(§5) Inhibition of forskolin-induced cAMP accumulation was performed in HEK293T cells transiently transfected with WT and mutant receptors. All the mutant constructs were modified by single-point mutation in the setting of the WT receptor. cAMP accumulation data were analyzed using a three-parameter logistic equation to determine pEC50 and Emax values. Emax values for mutants are defined as the window between the maximal response and vehicle control (no ligand) and expressed as a percentage of the WT. […]

RXFP4 Q205H = RXFP4 Q205H (Homo sapiens, UniProt Q8TDU9, Q205H); assay: cAMP accumulation, RXFP4 Q205H; type: cell-based; settings: HEK293T
Text: as §3, §4, §2, §5

RXFP4 T121A = molecular target: T2, RXFP4 T121A (Homo sapiens, UniProt Q8TDU9, T121A); assay: cAMP accumulation, RXFP4 T121A; type: cell-based; settings: HEK293T
T2 construct: RXFP4(1-374)-; expressed in transfected cells; host or cells: HEK293T, transient (pCMV6)
Text: as §3, §4, §2, §5

RXFP4 R194A = molecular target: T3, RXFP4 R194A (Homo sapiens, UniProt Q8TDU9, R194A); assay: cAMP accumulation, RXFP4 R194A; type: cell-based
T3 construct: RXFP4(1-374)-; expressed in transfected cells; host or cells: HEK293T, transient (pCMV6)
Text: The full-length human RXFP4 (NCBI Reference Sequence: NM_181885.3) was cloned into a modified pFastBac vector (Invitrogen) with HA signal peptide to enhance receptor expression, followed by a 10× histidine tag and BRIL insertion at the N terminus. LgBiT subunit (Promega) was fused at the C terminus of RXFP4 connected by a 15-amino acid polypeptide linker. […] The engineered human Gαi2, Gβ1, bovine Gγ2, and scFv16 were cloned into the pFastBac vector (Invitrogen), respectively. For cAMP accumulation assay, human RXFP4 and RXFP3 (NCBI Reference Sequence: NM_016568.3) were cloned into pCMV6 constructs (OriGene Technologies). The mutant receptors were modified by site-directed mutagenesis in the setting of the WT constructs, with the primers designed by QuikChange Primer Design [QuickChange Primer Design (http://agilent.com.cn)] and carried out using Phanta Max Master (Vazyme). N-terminal Flag tag was added to both WT and mutant receptors for surface expression measurement. Sequences of all primers used in this study were provided in Supplementary Table 6, and all the constructs were confirmed by DNA sequencing.
as §1
Ligands were verified for their bioactivity in the beginning in hRXFP4-CHO, which were ready for use after 24 h culturing. For assaying mutants, HEK293T cells were used 24 h post transfection. Cells were digested with 0.02% (w/v) EDTA and seeded onto 384-well microtiter plates at a density of 8 × 10^5 cells/mL in cAMP stimulation buffer [HBSS supplemented with 5 mM HEPES, 0.1% (w/v) bovine serum albumin (BSA) and 0.5 mM 3-isobutyl-1-methylxanthine]. The cells were stimulated with different concentrations of ligands plus 1.5 μM forskolin in RXFP4 and 4 μM forskolin in RXFP3. […] The time-resolved fluorescence resonance energy transfer (TR-FRET) signals were detected by an EnVision multilabel plate reader (PerkinElmer) with the emission window ratio of 665 nm over 620 nm under 320 nm excitation. […]
as §5, with “WT. Cell surface expression was assessed by flow cytometry to detect the N-terminal Flag epitope label on the receptors and normalized to the WT receptor (shown as percentage).” for “WT.”

parental CHO-K1 cells = assay: cAMP accumulation, parental CHO-K1 cells; type: cell-based, Chinese hamster; settings: Supplementary Fig. 2e–g
RXFP4 L118A+V122A = molecular target: T4, RXFP4 L118A+V122A (Homo sapiens, UniProt Q8TDU9, L118A/V122A); assay: cAMP accumulation, RXFP4 L118A+V122A; type: cell-based; settings: HEK293T
T4 construct: RXFP4(1-374)-; expressed in transfected cells; host or cells: HEK293T, transient (pCMV6)
Text: (§6) The full-length human RXFP4 (NCBI Reference Sequence: NM_181885.3) was cloned into a modified pFastBac vector (Invitrogen) with HA signal peptide to enhance receptor expression, followed by a 10× histidine tag and BRIL insertion at the N terminus. LgBiT subunit (Promega) was fused at the C terminus of RXFP4 connected by a 15-amino acid polypeptide linker. […] The engineered human Gαi2, Gβ1, bovine Gγ2, and scFv16 were cloned into the pFastBac vector (Invitrogen), respectively. For cAMP accumulation assay, human RXFP4 and RXFP3 (NCBI Reference Sequence: NM_016568.3) were cloned into pCMV6 constructs (OriGene Technologies). […]
as §4, §2

RXFP4 L118S = molecular target: T5, RXFP4 L118S (Homo sapiens, UniProt Q8TDU9, L118S); assay: cAMP accumulation, RXFP4 L118S; type: cell-based; settings: HEK293T
T5 construct: RXFP4(1-374)-; expressed in transfected cells; host or cells: HEK293T, transient (pCMV6)
Text: as §6, §4, §2

RXFP4 W279A = molecular target: T6, RXFP4 W279A (Homo sapiens, UniProt Q8TDU9, W279A); assay: cAMP accumulation, RXFP4 W279A; type: cell-based
T6 construct: RXFP4(1-374)-; expressed in transfected cells; host or cells: HEK293T, transient (pCMV6)
Text: as §6, §4, §2

RXFP3 WT = molecular target: T7, RXFP3 WT (Homo sapiens, UniProt Q9NSD7); assay: cAMP accumulation, WT RXFP3 (HEK293T); type: cell-based; settings: WT and all the five RXFP3 mutants
T7 construct: RXFP3(1-469)-; expressed in transfected cells; host or cells: HEK293T, transient (pCMV6)
Text: as §6, §4, §2

RXFP4 V122S = molecular target: T8, RXFP4 V122S (Homo sapiens, UniProt Q8TDU9, V122S); assay: cAMP accumulation, RXFP4 V122S; type: cell-based; settings: HEK293T, mean ± S.E.M.
T8 construct: RXFP4(1-374)-; expressed in transfected cells; host or cells: HEK293T, transient (pCMV6)
Text: as §6, §4, §2

RXFP4 Q205H, sequence (Q8TDU9 whole entry Q205H): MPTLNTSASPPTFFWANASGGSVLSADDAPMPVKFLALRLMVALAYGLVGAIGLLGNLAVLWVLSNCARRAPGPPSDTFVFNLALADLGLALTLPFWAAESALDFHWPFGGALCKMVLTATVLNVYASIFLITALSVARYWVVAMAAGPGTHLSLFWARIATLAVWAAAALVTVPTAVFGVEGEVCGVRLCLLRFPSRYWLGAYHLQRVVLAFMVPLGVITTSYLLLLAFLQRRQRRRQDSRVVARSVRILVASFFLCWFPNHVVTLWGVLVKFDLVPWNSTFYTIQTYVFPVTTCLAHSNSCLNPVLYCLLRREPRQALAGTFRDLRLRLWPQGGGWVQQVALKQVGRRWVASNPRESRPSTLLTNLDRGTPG
T3 sequence (Q8TDU9 whole entry R194A): as the sequence (Q8TDU9 whole entry Q205H) above, with R194A, H205Q counted along it
T1 sequence (Q8TDU9 whole entry E100A): as the sequence (Q8TDU9 whole entry Q205H) above, with E100A, H205Q counted along it
T2 sequence (Q8TDU9 whole entry T121A): as the sequence (Q8TDU9 whole entry Q205H) above, with T121A, H205Q counted along it
T8 sequence (Q8TDU9 whole entry V122S): as the sequence (Q8TDU9 whole entry Q205H) above, with V122S, H205Q counted along it
T6 sequence (Q8TDU9 whole entry W279A): as the sequence (Q8TDU9 whole entry Q205H) above, with H205Q, W279A counted along it
T7 sequence (Q9NSD7 whole entry): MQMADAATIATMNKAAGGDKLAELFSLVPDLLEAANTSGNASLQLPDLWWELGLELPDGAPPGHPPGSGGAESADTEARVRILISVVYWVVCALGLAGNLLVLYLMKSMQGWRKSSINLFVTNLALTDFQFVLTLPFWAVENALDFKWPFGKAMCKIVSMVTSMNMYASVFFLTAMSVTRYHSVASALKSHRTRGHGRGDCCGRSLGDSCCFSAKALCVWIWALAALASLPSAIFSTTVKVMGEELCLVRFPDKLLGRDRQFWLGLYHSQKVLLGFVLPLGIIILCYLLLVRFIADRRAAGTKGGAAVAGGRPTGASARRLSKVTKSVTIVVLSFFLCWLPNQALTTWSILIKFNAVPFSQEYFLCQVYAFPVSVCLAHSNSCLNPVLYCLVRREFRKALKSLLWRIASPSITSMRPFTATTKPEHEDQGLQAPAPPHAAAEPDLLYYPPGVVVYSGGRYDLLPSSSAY
T5 sequence (Q8TDU9 whole entry L118S): as the sequence (Q8TDU9 whole entry Q205H) above, with L118S, H205Q counted along it
T4 sequence (Q8TDU9 whole entry L118A/V122A): as the sequence (Q8TDU9 whole entry Q205H) above, with L118A, V122A, H205Q counted along it

Structure (SMILES): CCOc1cc2c(cc1OC)CCN(C(=O)N1CCOCC1)[C@H]2CCc1c[nH]c2ccc(OC)cc12 [DC591053, (S)-(7-ethoxy-6-methoxy-1-(2-(5-methoxy-1H-indol-3-yl)ethyl)−3,4-dihydroisoquinolin-2(1H)-yl)(morpholino)methanone]
- cross-reactivity with RXFP3 (human RXFP3): neither reacted with related RXFP3; also recorded: without observable cross-reactivity
- cAMP response (RXFP4 E100A): unchanged agonism
- EC50 (RXFP4 E100A; 1.5 μM forskolin, mean ± S.E.M., N.A., not active): 107 nM
- Emax (RXFP4 E100A; mean ± S.E.M.): 79.27 ± 6.72 % WT
- response (RXFP4 Q205H): more profound reduction for DC591053 than compound 4
- EC50 (RXFP4 Q205H; 1.5 μM forskolin, mean ± S.E.M., n = 3): 676 nM
- Emax (RXFP4 Q205H; mean ± S.E.M.): 25.10 ± 6.36 % WT
- decrease of potency vs WT (RXFP4 T121A): 20.9 fold
- EC50 (RXFP4 T121A; 1.5 μM forskolin, mean ± S.E.M., n = 3 or 4, N.A., not active): 724 nM
- Emax (RXFP4 T121A; mean ± S.E.M.): 31.53 ± 7.09 % WT
- decrease of potency vs WT (RXFP4 R194A; HEK293T): 8.1 fold
- EC50 (RXFP4 R194A; HEK293T, 1.5 μM forskolin, mean ± S.E.M., n = 3, read-out: pEC50 (converted)): 282 nM
- Emax (RXFP4 R194A; HEK293T, mean ± S.E.M.): 81.10 ± 7.60 % WT
- reaction with parental CHO-K1 cells (parental CHO-K1 cells): neither reacted with RXFP3 nor parental CHO-K1 cells

Structure (SMILES): CC[C@H](C)[C@@H]1NC(=O)[C@H](Cc2ccc(O)cc2)NC(=O)[C@H]([C@@H](C)CC)NC(=O)[C@H](C(C)C)NC(=O)[C@H]([C@@H](C)O)NC(=O)[C@H](CCCNC(=N)N)NC(=O)[C@H]([C@@H](C)CC)NC(=O)[C@H](Cc2ccc(O)cc2)NC(=O)[C@H](CCC(=O)O)NC(=O)[C@H](CC(C)C)NC(=O)CNC(=O)[C@@H](NC(=O)[C@H](CC(C)C)NC(=O)[C@H](CCCNC(=N)N)NC(=O)[C@@H](NC(=O)[C@H](CO)NC(=O)[C@H](CCC(=O)O)NC(=O)[C@@H](N)CCCCN)C(C)C)CSSC[C@@H]2NC(=O)[C@@H](NC(=O)[C@H](CC(C)C)NC(=O)[C@@H](NC(=O)[C@H](CCC(N)=O)NC(=O)[C@H](CC(C)C)NC(=O)[C@H](CC(=O)O)NC(=O)[C@@H](N)CCC(N)=O)[C@@H](C)O)CSSC[C@H](NC(=O)CNC(=O)[C@H](CC(=O)O)NC(=O)[C@H]([C@@H](C)O)NC2=O)C(=O)N[C@@H](CO)C(=O)N[C@@H](CCSC)C(=O)N[C@@H]([C@@H](C)O)C(=O)N[C@@H](CC(=O)O)C(=O)N[C@@H](CC(C)C)C(=O)N[C@@H](CO)C(=O)N[C@@H](C)C(=O)N[C@@H](CC(C)C)C(=O)N[C@H](C(=O)O)CSSC[C@@H](C(=O)N[C@@H](C)C(=O)N[C@@H](CO)C(=O)N[C@@H](CO)C(=O)N[C@@H](CCCNC(=N)N)C(=O)N[C@@H](Cc2c[nH]c3ccccc23)C(=O)O)NC1=O [INSL5, insulin-like peptide 5]
- response (RXFP4 L118A+V122A): inactive
- response (RXFP4 L118S): inactive
- EC50 (RXFP4 W279A): 1.86 nM
- Emax (RXFP4 W279A; HEK293T, mean ± S.E.M.): 43.30 ± 3.29 % WT
- EC50 (RXFP4 R194A): 1.66 nM
- Emax (RXFP4 R194A; HEK293T, mean ± S.E.M.): 79.76 ± 6.06 % WT
- response (RXFP3 WT): inactive
- EC50 (RXFP4 V122S; 1.5 μM forskolin, n = 3): 1.02 nM
- Emax (RXFP4 V122S): 45.95 ± 4.97 % WT
